Reference: US20250275540A1, “USE OF PROTOPORPHYRINOGEN OXIDASE” (BEIJING DABEINONG BIOTECHNOLOGY CO., LTD., priority 2022, published 2025)

Test system: transgenic maize plants
Test: Detection of the herbicide tolerance of the transgenic maize plants
Format: in vivo
Conditions: for The grade of pesticide damage/plant: 0 / The grade of pesticide damage/plant: 1 / The grade of pesticide damage/plant: 2 / The grade of pesticide damage/plant: 3: 7 DAT
Description: The transformed Arabidopsis thaliana T1 plants were initially selected using glufosinate herbicide. The Arabidopsis thaliana T1 plants (PPOA-01) into which the PPOA-01 nucleotide sequence was introduced, the Arabidopsis thaliana T1 plants (PPOB-01) into which the PPOB-01 nucleotide sequence was introduced, the Arabidopsis thaliana T1 plants (PPOC-01) into which the PPOC-01 nucleotide sequence was introduced, the Arabidopsis thaliana T1 plants (PPOD-01) into which the PPOD-01 nucleotide sequence was introduced, the Arabidopsis thaliana T1 plants (PPOE-01) into which the PPOE-01 nucleotide sequence was introduced, the Arabidopsis thaliana T1 plants (PPOF-01) into which the PPOF-01 nucleotide sequence was introduced, the Arabidopsis thaliana T1 plants (PPO-AP-01) into which the PPO-AP-01 nucleotide sequence was introduced, and the Arabidopsis thaliana T1 plants (control vector) into which the control vector was introduced, the wild-type Arabidopsis thaliana plants (CK) (with 24 plants being included in each genotype) (18 days after sowing) were sprayed with saflufenacil at three concentrations (25 g ai/ha (one-fold field concentration, 1×), 100 g ai/ha (four-fold field concentration, 4×), and 0 g ai/ha (water, 0×)), oxyfluorfen at three concentrations (180 g ai/ha (one-fold field concentration, 1×), 720 g ai/ha (four-fold field concentration, 4×), and 0 g ai/ha (water, 0×)), and flumioxazin at three concentrations (60 g ai/ha (one-fold field concentration, 1×), 240 g ai/ha (four-fold field concentration, 4×), and 0 g ai/ha (water, 0×) to determine the tolerance of Arabidopsis thaliana to the herbicides. After 7 days of spraying (7 DAT), the damage level of each plant caused by the herbicide was evaluated according to the average of the damage levels (%) of plants (the average of the damage levels (%) of plants=the injured leaf area/the total leaf area×100%), i.e., the grade of pesticide damage: grade 0 means that the growth status of plants is essentially consistent with those sprayed with the blank solvent (water); grade 1 means that the average of the damage levels of plants is less than 10%; grade 2 means that the average of the damage levels of plants is greater than 10%; and grade 3 means that the average of the damage levels of plants is 100%. The plants having a growth status falling within grades 0 and 1 are classified as highly resistant plants; those having a growth status falling within grade 2 are classified as poorly resistant plants; and those having a growth status falling within grade 3 are classified as non-resistant plants.
The maize plants into which the PPOA-02 nucleotide sequence was introduced, the maize plants into which the PPOB-02 nucleotide sequence was introduced, the maize plants into which the PPOC-02 nucleotide sequence was introduced, the maize plants into which the PPOD-02 nucleotide sequence was introduced, the maize plants into which the PPOE-02 nucleotide sequence was introduced, the maize plants into which the PPOF-02 nucleotide sequence was introduced, the maize plants into which the PPO-AP-02 nucleotide sequence was introduced, the maize plants (control vector) into which the control vector was introduced, and the wild-type maize plants (CK) (with 16 plants being included in each genotype) (18 days after sowing) were taken and sprayed with saflufenacil at three concentrations (50 g ai/ha (two-fold field concentration, 2×), 100 g ai/ha (four-fold field concentration, 4×), and 0 g ai/ha (water, 0×)), oxyfluorfen at three concentrations (360 g ai/ha (two-fold field concentration, 2×), 720 g ai/ha (four-fold field concentration, 4×), and 0 g ai/ha (water, 0×), and flumioxazin at three concentrations (120 g ai/ha (two-fold field concentration, 2×), 240 g ai/ha (four-fold field concentration, 4×), and 0 g ai/ha (water, 0×) to determine the tolerance of maize plants to the herbicides. […]

[1] = genotype Control vector, 50 g ai/ha
[2] = genotype Control vector, 100 g ai/ha
[3] = genotype PPO-AP-02, 100 g ai/ha

CC(C)N(C)S(=O)(=O)NC(=O)c1cc(-n2c(=O)cc(C(F)(F)F)n(C)c2=O)c(F)cc1Cl [saflufenacil, N′-[2-chloro-4-fluoro-5-(3-methyl-2,6-dioxo-4-(trifluoromethyl)-3,6-dihydro-1 (2H)-pyrimidine)benzoyl]-N-isopropyl-N-methylsulfamide]
7 plant: The grade of pesticide damage/plant: 2 (genotype PPO-AP-02, 50 g ai/ha)
6 plant: The grade of pesticide damage/plant: 1 (genotype PPOF-02, 100 g ai/ha)
1 plant: The grade of pesticide damage/plant: 2 [3]
9 plant: The grade of pesticide damage/plant: 3 (genotype PPO-AP-02, 50 g ai/ha)
basically no tolerance: tolerance to the herbicide (in words) (genotype PPO-AP-02, four-fold field concentration)
0 plant: The grade of pesticide damage/plant: 0 (genotype CK, 50 g ai/ha) | The grade of pesticide damage/plant: 1 (genotype CK, 50 g ai/ha) | The grade of pesticide damage/plant: 2 (genotype CK, 50 g ai/ha) | The grade of pesticide damage/plant: 0 (genotype CK, 100 g ai/ha) | The grade of pesticide damage/plant: 1 (genotype CK, 100 g ai/ha) | The grade of pesticide damage/plant: 2 (genotype CK, 100 g ai/ha) | The grade of pesticide damage/plant: 0 [1] | The grade of pesticide damage/plant: 1 [1] | The grade of pesticide damage/plant: 2 [1] | The grade of pesticide damage/plant: 0 [2] | The grade of pesticide damage/plant: 1 [2] | The grade of pesticide damage/plant: 2 [2] | The grade of pesticide damage/plant: 0 (genotype PPO-AP-02, 50 g ai/ha) | The grade of pesticide damage/plant: 1 (genotype PPO-AP-02, 50 g ai/ha) | The grade of pesticide damage/plant: 0 [3] | The grade of pesticide damage/plant: 1 [3] | The grade of pesticide damage/plant: 1 (genotype PPOA-02, 50 g ai/ha) | The grade of pesticide damage/plant: 2 (genotype PPOA-02, 50 g ai/ha) | The grade of pesticide damage/plant: 3 (genotype PPOA-02, 50 g ai/ha) | The grade of pesticide damage/plant: 1 (genotype PPOA-02, 100 g ai/ha) | The grade of pesticide damage/plant: 2 (genotype PPOA-02, 100 g ai/ha) | The grade of pesticide damage/plant: 3 (genotype PPOA-02, 100 g ai/ha) | The grade of pesticide damage/plant: 1 (genotype PPOB-02, 50 g ai/ha) | The grade of pesticide damage/plant: 2 (genotype PPOB-02, 50 g ai/ha) | The grade of pesticide damage/plant: 3 (genotype PPOB-02, 50 g ai/ha) | The grade of pesticide damage/plant: 1 (genotype PPOB-02, 100 g ai/ha) | The grade of pesticide damage/plant: 2 (genotype PPOB-02, 100 g ai/ha) | The grade of pesticide damage/plant: 3 (genotype PPOB-02, 100 g ai/ha) | The grade of pesticide damage/plant: 1 (genotype PPOC-02, 50 g ai/ha) | The grade of pesticide damage/plant: 2 (genotype PPOC-02, 50 g ai/ha) | The grade of pesticide damage/plant: 3 (genotype PPOC-02, 50 g ai/ha) | The grade of pesticide damage/plant: 1 (genotype PPOC-02, 100 g ai/ha) | The grade of pesticide damage/plant: 2 (genotype PPOC-02, 100 g ai/ha) | The grade of pesticide damage/plant: 3 (genotype PPOC-02, 100 g ai/ha) | The grade of pesticide damage/plant: 1 (genotype PPOD-02, 50 g ai/ha) | The grade of pesticide damage/plant: 2 (genotype PPOD-02, 50 g ai/ha) | The grade of pesticide damage/plant: 3 (genotype PPOD-02, 50 g ai/ha) | The grade of pesticide damage/plant: 1 (genotype PPOD-02, 100 g ai/ha) | The grade of pesticide damage/plant: 2 (genotype PPOD-02, 100 g ai/ha) | The grade of pesticide damage/plant: 3 (genotype PPOD-02, 100 g ai/ha) | The grade of pesticide damage/plant: 1 (genotype PPOE-02, 50 g ai/ha) | The grade of pesticide damage/plant: 2 (genotype PPOE-02, 50 g ai/ha) | The grade of pesticide damage/plant: 3 (genotype PPOE-02, 50 g ai/ha) | The grade of pesticide damage/plant: 1 (genotype PPOE-02, 100 g ai/ha) | The grade of pesticide damage/plant: 2 (genotype PPOE-02, 100 g ai/ha) | The grade of pesticide damage/plant: 3 (genotype PPOE-02, 100 g ai/ha) | The grade of pesticide damage/plant: 1 (genotype PPOF-02, 50 g ai/ha) | The grade of pesticide damage/plant: 2 (genotype PPOF-02, 50 g ai/ha) | The grade of pesticide damage/plant: 3 (genotype PPOF-02, 50 g ai/ha) | The grade of pesticide damage/plant: 2 (genotype PPOF-02, 100 g ai/ha) | The grade of pesticide damage/plant: 3 (genotype PPOF-02, 100 g ai/ha)
10 plant: The grade of pesticide damage/plant: 0 (genotype PPOF-02, 100 g ai/ha)
about 56%: share of the plants that exhibited no tolerance (genotype PPO-AP-02, two-fold field concentration)
high-resistant tolerance: tolerance to the herbicide (in words) (genotypes PPOA-02 to PPOF-02, four-fold field concentration) | tolerance to the herbicide (in words) (genotypes PPOA-02 to PPOF-02, two-fold field concentration)
15 plant: The grade of pesticide damage/plant: 3 [3]
16 plant: The grade of pesticide damage/plant: 3 (genotype CK, 50 g ai/ha) | The grade of pesticide damage/plant: 3 (genotype CK, 100 g ai/ha) | The grade of pesticide damage/plant: 3 [1] | The grade of pesticide damage/plant: 3 [2] | The grade of pesticide damage/plant: 0 (genotype PPOA-02, 50 g ai/ha) | The grade of pesticide damage/plant: 0 (genotype PPOA-02, 100 g ai/ha) | The grade of pesticide damage/plant: 0 (genotype PPOB-02, 50 g ai/ha) | The grade of pesticide damage/plant: 0 (genotype PPOB-02, 100 g ai/ha) | The grade of pesticide damage/plant: 0 (genotype PPOC-02, 50 g ai/ha) | The grade of pesticide damage/plant: 0 (genotype PPOC-02, 100 g ai/ha) | The grade of pesticide damage/plant: 0 (genotype PPOD-02, 50 g ai/ha) | The grade of pesticide damage/plant: 0 (genotype PPOD-02, 100 g ai/ha) | The grade of pesticide damage/plant: 0 (genotype PPOE-02, 50 g ai/ha) | The grade of pesticide damage/plant: 0 (genotype PPOE-02, 100 g ai/ha) | The grade of pesticide damage/plant: 0 (genotype PPOF-02, 50 g ai/ha)
